Data published in patent US5840684A, “Glycopeptide antibiotic derivatives” (Eli Lilly and Company, priority 1995, dated 1998).
Converted amounts (≈) assume the structure as drawn.

What was measured:
[1] = system: Staphylococcus aureus S13E; type: cell-based
Procedure: (§1) The MIC's were determined using a standard broth micro-dilution assay.

[2] = system: Staphylococcus aureus SA1199B; type: cell-based
Procedure: as §1

[3] = system: Entercoccus faecium 180-1; test: broth micro-dilution MIC; type: cell-based
Procedure: as §1

[4] = system: Staphylococcus aureus 446; test: broth micro-dilution MIC; type: cell-based
Procedure: as §1

[5] = system: Staphylococcus aureus 447; test: broth micro-dilution MIC; type: cell-based
Procedure: as §1

[6] = system: Staphylococcus aureus 489; test: broth micro-dilution MIC; type: cell-based
Procedure: as §1

[7] = system: Staphylococcus aureus SA1199; test: broth micro-dilution MIC; type: cell-based
Procedure: as §1

[8] = system: Streptococcus pyogenes C203; test: broth micro-dilution MIC; type: cell-based
Procedure: as §1

Entercoccus faecium 180 = test: broth micro-dilution MIC; type: cell-based; conditions: Entercoccus faecium 180
Procedure: (§2) The formula I compounds have in vitro and in vivo activity against Gram-positive pathogenic bacteria. The MIC's were determined using a standard broth micro-dilution assay.

Entercoccus faecium 2041 = test: broth micro-dilution MIC; type: cell-based; conditions: Entercoccus faecium 2041
Procedure: as §2

[9] = system: Enterococcus gallinarum 245; test: broth micro-dilution MIC; type: cell-based; conditions: Enterococcus gallinarum 245
Procedure: as §2

[10] = system: Haemophilus influenzae RD; test: broth micro-dilution MIC; type: cell-based; conditions: Haemophilus influenzae RD
Procedure: as §2

[11] = system: Staphylococcus epidermidis 270; test: broth micro-dilution MIC; type: cell-based
Procedure: as §2

[12] = system: Staphylococcus haemolyticus 105; test: broth micro-dilution MIC; type: cell-based
Procedure: as §2

[13] = system: Staphylococcus haemolyticus 415; test: broth micro-dilution MIC; type: cell-based
Procedure: as §2

[14] = system: Streptococcus pneumoniae P1; test: broth micro-dilution MIC; type: cell-based
Procedure: as §2

[15] = system: vancomycin-resistant enterococci; test: broth micro-dilution, mean geometric MIC; type: cell-based, Enterococcus faecium and Enterococcus faecalis; conditions: enterococci, 24-hour incubation
[16] = system: vancomycin-susceptible enterococci; test: broth micro-dilution, mean geometric MIC; type: cell-based, Enterococcus faecium and Enterococcus faecalis; conditions: enterococci, 24-hour incubation
Entercoccus faecium 276 = test: broth micro-dilution MIC; type: cell-based
Procedure: as §1

[17] = system: Staphylococcus aureus SA1199A; test: broth micro-dilution MIC; type: cell-based
Procedure: as §1

[18] = system: Staphylococcus aureus X400; test: broth micro-dilution MIC; type: cell-based
Procedure: as §1

[19] = system: Staphylococcus aureus X778; test: broth micro-dilution MIC; type: cell-based
Procedure: as §1

Row | SMILES | MIC [1] [µg/mL] | MIC [2] [µg/mL] | MIC [3] [µg/mL] | MIC [4] [µg/mL] | MIC [5] [µg/mL] | MIC [6] [µg/mL] | MIC [7] [µg/mL] | MIC [8] [µg/mL] | MIC (Entercoccus faecium 180) [µg/mL] | MIC (Entercoccus faecium 2041) [µg/mL] | MIC [9] [µg/mL] | MIC [10] [µg/mL] | MIC [12] [µg/mL] | MIC [13] [µg/mL] | MIC [14] [µg/mL] | mean geometric MIC, Vancomycin Resistant Strains [15] [µg/mL] | mean geometric MIC, Vancomycin Sensitive Strains [16] [µg/mL] | MIC [17] [µg/mL] | MIC [18] [µg/mL] | MIC [19] [µg/mL] | further results
1 | C=CCCCOc1ccc(CNC2(C)CC(OC3C(Oc4c5cc6cc4Oc4ccc(cc4Cl)C(OC4CC(C)(N)C(O)C(C)O4)C4NC(=O)C(NC(=O)C6NC(=O)C(CC(N)=O)NC(=O)C(NC(=O)C(CC(C)C)NC)C(O)c6ccc(c(Cl)c6)O5)c5ccc(O)c(c5)-c5c(O)cc(O)cc5C(C(=O)O)NC4=O)OC(CO)C(O)C3O)OC(C)C2O)cc1 (stereo not drawn) [Compound 226] | 0.5 (≈ 0.283 µM) | 1 (≈ 0.566 µM) | ≤ 0.06 | 1 (≈ 0.566 µM) | 0.5 (≈ 0.283 µM) | 0.5 (≈ 0.283 µM) | 1 (≈ 0.566 µM) | ≤ 0.06 | ≤ 0.06 | ≤ 0.06 | 1 (≈ 0.566 µM) | 32 (≈ 18.1 µM) | 2 (≈ 1.13 µM) | 1 (≈ 0.566 µM) | ≤ 0.06 | 1.6 | 0.041 |  |  |  | MIC [11]: 1 µg/mL (≈ 0.566 µM)
2 | CNC(CC(C)C)C(=O)NC1C(=O)NC(CC(N)=O)C(=O)NC2C(=O)NC3C(=O)NC(C(=O)NC(C(=O)O)c4cc(O)cc(O)c4-c4cc3ccc4O)C(OC3CC(C)(N)C(O)C(C)O3)c3ccc(c(Cl)c3)Oc3cc2cc(c3OC2OC(CO)C(O)C(O)C2OC2CC(C)(NCc3ccc(-c4ccccc4C)c(C)c3)C(O)C(C)O2)Oc2ccc(cc2Cl)C1O (stereo not drawn) [Compound 237] |  |  | ≤ 0.06 | 2 (≈ 1.12 µM) | 1 (≈ 0.56 µM) | 0.5 (≈ 0.28 µM) | 1 (≈ 0.56 µM) | ≤ 0.06 |  | 0.125 (≈ 0.07 µM) | 1 (≈ 0.56 µM) | 8 (≈ 4.48 µM) | 1 (≈ 0.56 µM) | 1 (≈ 0.56 µM) | ≤ 0.06 | 1.0 | 0.048 | ≤ 0.06 | 1 (≈ 0.56 µM) | 0.5 (≈ 0.28 µM) | MIC (Entercoccus faecium 276): 1 µg/mL (≈ 0.56 µM); MIC [11]: 0.5 µg/mL (≈ 0.28 µM)
3 | CNC(CC(C)C)C(=O)NC1C(=O)NC(CC(N)=O)C(=O)NC2C(=O)NC3C(=O)NC(C(=O)NC(C(=O)O)c4cc(O)cc(O)c4-c4cc3ccc4O)C(OC3CC(C)(N)C(O)C(C)O3)c3ccc(c(Cl)c3)Oc3cc2cc(c3OC2OC(CO)C(O)C(O)C2OC2CC(C)(NCc3ccc(-c4ccc(O)cc4)cc3)C(O)C(C)O2)Oc2ccc(cc2Cl)C1O (stereo not drawn) [Compound 20] | ≤ 0.06 | 0.5 (≈ 0.282 µM) | ≤ 0.06 | 0.5 (≈ 0.282 µM) | 4 (≈ 2.25 µM) | 0.5 (≈ 0.282 µM) | 2 (≈ 1.13 µM) | ≤ 0.06 | 1 (≈ 0.563 µM) | ≤ 0.06 |  | 8 (≈ 4.51 µM) | 8 (≈ 4.51 µM) | 4 (≈ 2.25 µM) | ≤ 0.06 | 4.8 | 0.38 | ≤ 0.06 | 0.5 (≈ 0.282 µM) |  | MIC [11]: 2 µg/mL (≈ 1.13 µM)
4 | CNC(CC(C)C)C(=O)NC1C(=O)NC(CC(N)=O)C(=O)NC2C(=O)NC3C(=O)NC(C(=O)NC(C(=O)O)c4cc(O)cc(O)c4-c4cc3ccc4O)C(OC3CC(C)(N)C(O)C(C)O3)c3ccc(c(Cl)c3)Oc3cc2cc(c3OC2OC(CO)C(O)C(O)C2OC2CC(C)(NCCCCCCc3ccccc3)C(O)C(C)O2)Oc2ccc(cc2Cl)C1O (stereo not drawn) [Compound 196] | 1 (≈ 0.571 µM) | 0.5 (≈ 0.285 µM) | ≤ 0.06 | 0.5 (≈ 0.285 µM) | 0.5 (≈ 0.285 µM) | 1 (≈ 0.571 µM) | 0.5 (≈ 0.285 µM) | ≤ 0.06 | 0.5 (≈ 0.285 µM) | ≤ 0.06 | 1 (≈ 0.571 µM) | 32 (≈ 18.3 µM) | 0.5 (≈ 0.285 µM) | 1 (≈ 0.571 µM) | ≤ 0.06 | 1.7 | 0.027 | ≤ 0.06 | 0.5 (≈ 0.285 µM) | 1 (≈ 0.571 µM) | 
5 | CNC(CC(C)C)C(=O)NC1C(=O)NC(CC(N)=O)C(=O)NC2C(=O)NC3C(=O)NC(C(=O)NC(C(=O)O)c4cc(O)cc(O)c4-c4cc3ccc4O)C(OC3CC(C)(N)C(O)C(C)O3)c3ccc(c(Cl)c3)Oc3cc2cc(c3OC2OC(CO)C(O)C(O)C2OC2CC(C)(NCCc3ccc4ccccc4c3)C(O)C(C)O2)Oc2ccc(cc2Cl)C1O (stereo not drawn) [Compound 179] |  |  | ≤ 0.06 |  |  | ≤ 0.06 | 1 (≈ 0.573 µM) | ≤ 0.06 | ≤ 0.06 | ≤ 0.06 | 1 (≈ 0.573 µM) | 4 (≈ 2.29 µM) | 0.5 (≈ 0.286 µM) | 1 (≈ 0.573 µM) | ≤ 0.06 | 1.7 | 0.060 | ≤ 0.06 | ≤ 0.06 | ≤ 0.06 | MIC (Entercoccus faecium 276): ≤ 0.06 µg/mL
6 | CNC(CC(C)C)C(=O)NC1C(=O)NC(CC(N)=O)C(=O)NC2C(=O)NC3C(=O)NC(C(=O)NC(C(=O)O)c4cc(O)cc(O)c4-c4cc3ccc4O)C(O)c3ccc(c(Cl)c3)Oc3cc2cc(c3OC2OC(CO)C(O)C(O)C2OC2CC(C)(NCc3ccc(-c4ccccc4)cc3)C(O)C(C)O2)Oc2ccc(cc2Cl)C1O (stereo not drawn) [Compound 181] | ≤ 0.06 | ≤ 0.06 | ≤ 0.06 | ≤ 0.06 | ≤ 0.06 | ≤ 0.06 | ≤ 0.06 | ≤ 0.06 | 4 (≈ 2.48 µM) |  | ≤ 0.06 | 32 (≈ 19.8 µM) | 0.25 (≈ 0.155 µM) | 1 (≈ 0.619 µM) | ≤ 0.06 | 8.0 | 0.060 | ≤ 0.06 | ≤ 0.06 | ≤ 0.06 | MIC (Entercoccus faecium 276): 2 µg/mL (≈ 1.24 µM)
7 | CNC(CC(C)C)C(=O)NC1C(=O)NC(CC(N)=O)C(=O)NC2C(=O)NC3C(=O)NC(C(=O)NC(C(=O)O)c4cc(O)cc(O)c4-c4cc3ccc4O)C(OC3CC(C)(N)C(O)C(C)O3)c3ccc(c(Cl)c3)Oc3cc2cc(c3OC2OC(CO)C(O)C(O)C2OC2CC(C)(NCc3ccc(Oc4ccccc4[N+](=O)[O-])cc3)C(O)C(C)O2)Oc2ccc(cc2Cl)C1O (stereo not drawn) [Compound 70] | ≤ 0.06 | ≤ 0.06 | ≤ 0.06 |  | 0.5 (≈ 0.275 µM) | ≤ 0.06 | ≤ 0.06 |  | 0.5 (≈ 0.275 µM) | ≤ 0.06 | 2 (≈ 1.1 µM) | 16 (≈ 8.79 µM) | 2 (≈ 1.1 µM) | 2 (≈ 1.1 µM) |  | 2.0 | 0.092 | ≤ 0.06 | ≤ 0.06 | ≤ 0.06 | MIC (Entercoccus faecium 276): ≤ 0.06 µg/mL; MIC [11]: 0.25 µg/mL (≈ 0.137 µM)
